Experimental data as given in patent US20240166639A1, “POTENT AND SELECTIVE COMPOUNDS AS SEROTONIN 1B RECEPTOR MODULATORS” (LEUKOS BIOTECH, S.L., priority 2020, published 2024).
Counter-ions that a name gives are not always drawn.

Tests used:
[1] = system: HL-60; assay: Cell viability assay, AML cell line HL-60; assay type: cell-based; details: 48 h treatment, live cells by flow cytometry
Protocol: (§1) 0.15×10^6 AML cell lines (HL-60 or MonoMac-1) per mL were cultured in completed RPMI medium, supplemented with 10% Fetal bovine serum (FBS). Compounds were added to the medium at the concentration indicated (0.1, 1 and 10 μM), while controls were treated with equivalent concentration of vehicle (DMSO). Primary validation screenings were analyzed after 72 h of treatment, EC50 was determined upon 48 h treatments. Cells were stained with the live-dead discrimination dye 7-aminoactinomycin D (7-AAD) and Hoechst 33342 and acquired in a flow cytometer, with a volumetric counting. Live cells were discriminated based on a discrete FSC-SSC profile, 7-AAD negativity and dim positivity to Hoechst 33342. EC50 was calculated with the Prism GraphPad software.

[2] = system: MonoMac-1; assay: Cell viability assay, AML cell line MonoMac-1; assay type: cell-based; details: 48 h treatment, live cells by flow cytometry
Protocol: as §1

[3] = molecular target: human 5-HT2A receptor (Homo sapiens (Human), UniProt P28223); assay: Competition binding in human 5-HT2A receptor; details: [3H]-Ketanserin, CHO-5-HT2A membranes; read-out: h5-HT2A Ki
Protocol: Serotonin 5-HT2A receptor competition binding experiments were carried out in a polypropilene 96-well plate. In each well was incubated 80 μg of membranes from CHO-5-HT2A cell line prepared in the laboratory (protein concentration=4337 μg/ml), 1 nM [^3H]-Ketanserin (47.3 Ci/mmol, 1 mCi/ml, Perkin Elmer NET791250UC) and compounds studied and standard. Non-specific binding was determined in the presence of Methysergide 1 μM (Sigma M137). The reaction mixture (Vt: 250 μl/well) was incubated at 37° C. for 30 min, 200 μL was transfered to GF/B 96-well plate (Millipore, Madrid, Spain) pretreated with 0.5% of PEI and treated with binding buffer (Tris-HCl 50 mM, pH=7.4), after was filtered and washed six times with 250 μl wash buffer (Tris-HCl 50 mM, pH=6.6), before measuring in a microplate beta scintillation counter (Microbeta Trilux, PerkinElmer, Madrid, Spain).
The raw radioactivity data is adjusted to a logistic regression of 4 parameters using GraphPad Prism software, from the specific junction the value of IC50 is obtained. From the IC50 the Ki is calculated according to the following formula: […]
Being: • IC50: inhibitory concentration, • D: real concentration of radioligand and • Kd: dissociation constant (affinity of radioligand to the receptor).

Sequence of human 5-HT2A receptor (P28223 whole entry): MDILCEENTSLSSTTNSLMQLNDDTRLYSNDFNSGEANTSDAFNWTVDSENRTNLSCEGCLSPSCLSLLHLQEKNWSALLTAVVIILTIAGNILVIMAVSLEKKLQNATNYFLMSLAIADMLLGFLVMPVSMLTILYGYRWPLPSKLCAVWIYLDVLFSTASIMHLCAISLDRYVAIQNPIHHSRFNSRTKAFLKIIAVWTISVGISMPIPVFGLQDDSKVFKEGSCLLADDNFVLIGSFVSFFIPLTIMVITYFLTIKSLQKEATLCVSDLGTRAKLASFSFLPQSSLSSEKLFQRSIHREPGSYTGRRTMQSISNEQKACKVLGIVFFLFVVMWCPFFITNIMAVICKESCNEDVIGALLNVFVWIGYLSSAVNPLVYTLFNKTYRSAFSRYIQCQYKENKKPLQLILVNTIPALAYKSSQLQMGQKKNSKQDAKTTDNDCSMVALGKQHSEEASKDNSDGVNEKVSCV

| Compound | EC50 ([1]; Homo sapiens, HL-60) | EC50 [1] | EC50 ([2]; Mono-Mac-1) | Ki [3] | EC50 [2] |
| --- | --- | --- | --- | --- | --- |
| COc1cc(-c2noc(C)n2)ccc1-c1ccc(C(=O)Nc2cc(OCCN(C)C)c(C#N)cn2)cc1 [Example 25, N-(5-cyano-4-(2-(dimethylamino)ethoxy)pyridin-2-yl)-2′-methoxy-4′-(5-methyl-1,2,4-oxadiazol-3-yl)-[1,1′-biphenyl]-4-carboxamide] | 2.8 µM |  | 2.69 µM |  |  |
| Cc1nc(-c2ccc(-c3ccc(C(=O)N4CCc5cc6c(cc54)C4(CCN(C)CC4)CO6)cc3)c(C)c2)no1 [SB9, 1′-Methyl-5-[[2′-methyl-4′-(5-methyl-1,2,4-oxadiazol-3-yl)biphenyl-4-yl]carbonyl]-2,3,6,7-tetrahydrospiro[furo[2,3-f]indole-3,4′-piperidine hydrochloride, reference compound] | 4.78 µM |  | 1.18 µM | 0.00592 µM |  |
| Cc1nc(-c2ccc(-c3ccc(C(=O)Nc4ccc(C#N)c(OCCN(C)C)c4)cn3)c(F)c2)no1 [Example 8, N-(4-cyano-3-(2-(dimethylamino)ethoxy)phenyl)-6-(2-fluoro-4-(5-methyl-1,2,4-oxadiazol-3-yl)phenyl)nicotinamide] | 2.81 µM |  | 2 µM |  |  |
| COc1cc(-c2noc(C)n2)ccc1-c1ccc(C(=O)Nc2ccc(Br)c(OCCN(C)C)c2)cn1 [Example 5, N-(4-bromo-3-(2-(dimethylamino)ethoxy)phenyl)-6-(2-methoxy-4-(5-methyl-1,2,4-oxadiazol-3-yl)phenyl)nicatinamide] |  | 1.18 µM |  |  | 1.14 µM |
| Cc1nc(-c2ccc(-c3ccc(C(=O)Nc4ccc(Br)c(OCCN(C)C)c4)cn3)c(Cl)c2)no1 [Example 3, N-(4-bromo-3-(2-(dimethylamino)ethoxy)phenyl)-6-(2-chloro-4-(5-methyl-1,2,4-oxadiazol-3-yl)phenyl)nicotinamide] | 1.62 µM |  | 0.87 µM |  |  |
| Cc1nc(-c2ccc(-c3ccc(C(=O)Nc4cc(OCCN(C)C)c(Br)cn4)cc3)c(Cl)c2)no1 [Example 17, N-(5-bromo-4-(2-(dimethylamino)ethoxy)pyridin-2-yl)-2′-chloro-4′-(5-methyl-1,2,4-oxadiazol-3-yl)-[1,1′-biphenyl]-4-carboxamide] | 2.65 µM |  | 1.32 µM |  |  |
| Cc1nc(-c2ccc(-c3ccc(C(=O)Nc4ccc(Br)c(OCCN(C)C)n4)cn3)c(C3CC3)c2)no1 [Example 51, N-(5-bromo-6-(2-(dimethylamino)ethoxy)pyridin-2-yl)-6-(2-cyclopropyl-4-(5-methyl-1,2,4-oxadiazol-3-yl)phenyl)nicotinamide] | 1.99 µM |  | 1.2 µM |  |  |
| Cc1nc(-c2ccc(-c3ccc(C(=O)Nc4cc(OCCN(C)C)c(Br)cn4)cc3)c(C(F)(F)F)c2)no1 [Example 18, N-(5-bromo-4-(2-(dimethylamino)ethoxy)pyridin-2-yl)-4′-(5-methyl-1,2,4-oxadiazol-3-yl)-2′-(trifluoromethyl)-[1,1′-biphenyl]-4-carboxamide] | 1.17 µM |  | 0.42 µM |  |  |
| Cc1nc(-c2ccc(-c3ccc(C(=O)Nc4ncc(Br)c(OCCN(C)C)n4)cn3)c(F)c2)no1 [Example 58, N-(5-bromo-4-(2-(dimethylamino)ethoxy)pyrimidin-2-yl)-6-(2-fluoro-4-(5-methyl-1,2,4-oxadiazol-3-yl)phenyl)nicotinamide] | 3.79 µM |  | 2.61 µM |  |  |
| Cc1nc(-c2ccc(-c3ccc(NC(=O)c4ccc(C#N)c(OCCN(C)C)c4)cn3)c(Cl)c2)no1 [Example 73, N-(6-(2-chloro-4-(5-methyl-1,2,4-oxadiazol-3-yl)phenyl)pyridin-3-yl)-4-cyano-3-(2-(dimethylamino)ethoxy)benzamide] | 1.53 µM |  | 3.08 µM |  |  |
| Cc1nc(-c2ccc(-c3ccc(C(=O)Nc4ccc(C#N)c(OCCN(C)C)n4)cn3)c(Cl)c2)no1 [Example 56, 6-(2-chloro-4-(5-methyl-1,2,4-oxadiazol-3-yl)pheny)-N-(5-cyano-6-(2-(dimethylamino)ethoxy)pyridin-2-yl)nicotinamide] |  | 0.62 µM |  |  | 2.02 µM |

The remaining compounds from weak to strong by EC50 ([1]; Homo sapiens, HL-60), led by results:

| EC50 ([1]; Homo sapiens, HL-60) | EC50 [1] | Compound | EC50 ([2]; Mono-Mac-1) | Ki [3] | EC50 [2] |
| --- | --- | --- | --- | --- | --- |
| 1.08 µM |  | Cc1nc(-c2ccc(-c3ccc(C(=O)Nc4cc(OCCN(C)C)c(Br)cn4)cc3)c(F)c2)no1 [Example 16, N-(5-bromo-4-(2-(dimethylamino)ethoxy)pyridin-2-yl)-2′-fluoro-4′-(5-methyl-1,2,4-oxadiazol-3-yl)-[1,1′-biphenyl]-4-carboxamide] | 0.46 µM |  |  |
| 1.03 µM |  | Cc1nc(-c2ccc(-c3ccc(C(=O)Nc4ccc(C#N)c(OCCN(C)C)n4)cc3)c(C3CC3)c2)no1 [Example 30, N-(5-cyano-6-(2-(dimethylamino)ethoxy)pyridin-2-yl)-2′-cyclopropyl-4′-(5-methyl-1,2,4-oxadiazol-3-yl)-[1,1′-biphenyl]-4-carboxamide] | 2.8 µM |  |  |
| 1.03 µM |  | Cc1nc(-c2ccc(-c3ccc(C(=O)Nc4ccc(Br)c(OCCN(C)C)n4)cn3)c(F)c2)no1 [Example 52, N-(5-bromo-6-(2-(dimethylamino)ethoxy)pyridin-2-yl)-6-(2-fluoro-4-(5-methyl-1,2,4-oxadiazol-3-yl)phenyl)nicotinamide] | 4.32 µM |  |  |
| 1 µM |  | Cc1nc(-c2ccc(-c3ccc(C(=O)Nc4ccc(Br)c(OCCN(C)C)c4)cn3)c(C3CC3)c2)no1 [Example 1, N-(4-bromo-3-(2-(dimethylamino)ethoxy)phenyl)-6-(2-cyclopropyl-4-(5-methyl-1,2,4-oxadiazol-3-yl)phenyl)nicotinamide] | 0.79 µM |  |  |
| 0.99 µM |  | Cc1nc(-c2ccc(-c3ccc(C(=O)Nc4ccc(C#N)c(OCCN(C)C)c4)cn3)c(Cl)c2)no1 [Example 9, 6-(2-chloro-4-(5-methyl-1,2,4-oxadiazol-3-yl)phenyl)-N-(4-cyano-3-(2-(dimethylamino)ethoxy)phenyl)nicotinamide] | 0.88 µM |  |  |
| 0.6 µM |  | Cc1nc(-c2ccc(-c3ccc(C(=O)Nc4ccc(Br)c(OCCN(C)C)n4)cn3)c(Cl)c2)no1 [Example 53, N-(5-bromo-6-(2-(dimethylamino)ethoxy)pyridin-2-yl)-6-(2-chloro-4-(5-methyl-1,2,4-oxadiazol-3-yl)phenyl)nicotinamide] | 1.32 µM |  |  |
| 0.58 µM |  | Cc1nc(-c2ccc(-c3ccc(C(=O)Nc4ccc(Br)c(OCCN(C)C)c4)cn3)c(F)c2)no1 [Example 2, N-(4-bromo-3-(2-(dimethylamino)ethoxy)phenyl)-6-(2-fluoro-4-(5-methyl-1,2,4-oxadiazol-3-yl)phenyl)nicotinamide] | 1.11 µM |  |  |
